IC50 data for twelve molecules are collected here from ChEMBL document CHEMBL6127100, “Plant based steroidal and triterpenoid sapogenins: Chemistry on diosgenin and biological aspects” (Eur J Med Chem, 2024).

For orientation: IC50 means the concentration at which inhibition is half-maximal.

The structures appear in SMILES notation.

Type in all cases: functional, cell-based
Assay [1] relates to HeLa. In words: Cytotoxicity against human HeLa cells assessed as reduction in cell growth incubated for 48 hrs by MTT assay. Background: Formazan colour is commonly taken as a measure of viable cells.
In assay [2] the test system is KB. The experiment in a line: Cytotoxicity against human KB cells assessed as reduction in cell growth incubated for 3 days by micro-titer plate reader analysis. The following applies: 72 h.
The subject of assay [3] is MDA-MB-231. In words: Cytotoxicity against human MDA-MB-231 cells assessed as reduction in cell growth incubated for 48 hrs by MTT assay. The following applies: MDA-MB-231, 48 h.
Assay [4] relates to HuCC-A1. The experiment in a line: Cytotoxicity against human HuCC-A1 cells assessed as reduction in cell growth incubated for 3 days by micro-titer plate reader analysis. The following applies: HuCC-A1, 72 h.
Assay [5] has as its system SH-SY5Y. In words: Cytotoxicity against human SH-SY5Y cells assessed as reduction in cell viability incubated for 24 hrs by MTT assay.
Assay [6] relates to HeLa. The experiment in a line: Antiproliferative activity against human HeLa cells assessed as reduction in cell viability measured for 24 hrs by MTT assay.
The test system of assay [7] is HepG2. The experiment in a line: Antiproliferative activity against human HepG2 cells assessed as reduction in cell viability measured for 24 hrs by MTT assay. The following applies: HepG2, 24 h.

On to `C[C@@H]1CC[C@@]2(OC1)O[C@H]1C[C@H]3[C@@H]4CC=C5C[C@@H](O[C@@H]6O[C@H](CO)[C@@H](O[C@@H]7O[C@H](CO)[C@@H](O[C@@H]8O[C@@H](C)[C@H](O)[C@@H](O)[C@H]8O)[C@H](O)[C@H]7O)[C@H](O)[C@H]6O[C@@H]6O[C@@H](C)[C@H](O)[C@@H](O)[C@H]6O)CC[C@]5(C)[C@H]4CC[C@]3(C)[C@H]1[C@@H]2C`, for which the IC50 in assay [1] is 0.7 µM; in assay [2], 0.9 µM; in assay [3], 0.9 µM; in assay [4], 2.6 µM. For `C[C@@H]1CC[C@@]2(OC1)O[C@H]1C[C@H]3[C@@H]4CC=C5C[C@@H](O[C@@H]6O[C@H](CO)[C@@H](O[C@@H]7O[C@H](CO)[C@@H](O)[C@H](O)[C@H]7O)[C@H](O)[C@H]6O[C@@H]6O[C@@H](C)[C@H](O)[C@@H](O)[C@H]6O)CC[C@]5(C)[C@H]4CC[C@]3(C)[C@H]1[C@@H]2C` [DELTONIN], the IC50 came out at 0.9 µM in assay [1], 1.2 µM in assay [2], 1.1 µM in assay [3] and 3.4 µM in assay [4]. For `C[C@@H]1CC[C@@]2(OC1)O[C@H]1C[C@H]3[C@@H]4CC=C5C[C@@H](OC(=O)[C@@H](N)Cc6ccccc6)CC[C@]5(C)[C@H]4CC[C@]3(C)[C@H]1[C@@H]2C`, the IC50 in assay [5] stood at 11.2 µM.

As for `CCCC(N)C(=O)O[C@H]1CC[C@@]2(C)C(=CC[C@H]3[C@@H]4C[C@@H]5O[C@]6(CC[C@@H](C)CO6)[C@@H](C)[C@@H]5[C@@]4(C)CC[C@@H]32)C1` (some centres not stated), the half-maximal inhibitory concentration (IC50) in assay [5] worked out at 6.9 µM. Still for that read-out and setting: next, `C[C@@H]1CC[C@@]2(OC1)O[C@H]1C[C@H]3[C@@H]4CC=C5C[C@@H](OC(=O)CN(C)C(=O)OC(C)(C)C)CC[C@]5(C)[C@H]4CC[C@]3(C)[C@H]1[C@@H]2C`: 15.2 µM; `CC(C)C[C@H](NC(=O)OC(C)(C)C)C(=O)O[C@H]1CC[C@@]2(C)C(=CC[C@H]3[C@@H]4C[C@@H]5O[C@]6(CC[C@@H](C)CO6)[C@@H](C)[C@@H]5[C@@]4(C)CC[C@@H]32)C1`: 9.5 µM; `CC[C@H](C)[C@H](NC(=O)OC(C)(C)C)C(=O)O[C@H]1CC[C@@]2(C)C(=CC[C@H]3[C@@H]4C[C@@H]5O[C@]6(CC[C@@H](C)CO6)[C@@H](C)[C@@H]5[C@@]4(C)CC[C@@H]32)C1`: 18.5 µM.

As to `Cc1ccc2c(n1)C(=O)C(Cl)=C(O[C@H]1CC[C@@]3(C)C(=CC[C@H]4[C@@H]5C[C@@H]6O[C@H](CC[C@@H](C)CO)[C@@H](C)[C@@H]6[C@@]5(C)CC[C@@H]43)C1)C2=O`, the IC50 in assay [6] was found to be 15.6 µM; in assay [7], 5.36 µM. Regarding `C[C@@H]1CC[C@@]2(OC1)O[C@H]1C[C@H]3[C@@H]4CC=C5C[C@@H](OC(=O)[C@@H]6CCCN6)CC[C@]5(C)[C@H]4CC[C@]3(C)[C@H]1[C@@H]2C`, the IC50 in assay [5] was 7.2 µM.

Regarding `C[C@H](CC[C@H]1O[C@H]2C[C@H]3[C@@H]4CC=C5C[C@@H](OC6=C(Cl)C(=O)c7ncccc7C6=O)CC[C@]5(C)[C@H]4CC[C@]3(C)[C@H]2[C@@H]1C)CO[Si](C)(C)C(C)(C)C`, the figures for the IC50 in assay [6] and in assay [7] were 12.4 µM and 12.2 µM, respectively.

With `C[C@@H](CO)CC[C@H]1O[C@H]2C[C@H]3[C@@H]4CC=C5C[C@@H](OC6=C(Cl)C(=O)c7ccccc7C6=O)CC[C@]5(C)[C@H]4CC[C@]3(C)[C@H]2[C@@H]1C`, the IC50 in assay [6] worked out at 3.7 µM; in assay [7] it was 3.85 µM. As to `Cc1ccc2c(c1)C(=O)C(Cl)=C(OC[C@H](C)CC[C@H]1O[C@H]3C[C@H]4[C@@H]5CC=C6C[C@@H](OC7=C(Cl)C(=O)c8cc(C)ccc8C7=O)CC[C@]6(C)[C@H]5CC[C@]4(C)[C@H]3[C@@H]1C)C2=O`, the IC50 in assay [6] came out at 14.5 µM; in assay [7], 9.18 µM.
